# Assay results published in patent US20180327367A1, “MACROCYCLIC BROAD SPECTRUM ANTIBIOTICS” (priority 2015, published 2018).
# Like-named read-outs stand apart in the source and are kept apart here.
# What was measured:
# [1] = tested on: Methicillin Resistant Staphylococcus aureus strain USA 300, NRS384; experiment: Minimum inhibitory concentration, broth micro-dilution (CLSI), S. aureus; type: cell-based; conditions: Staphylococcus aureus, MRSA / NRS 384 / USA300, 22 h, 35° C., 22 hours
# Method in brief: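 Colonies grown 20 hours at 35° C were suspended in cation-adjusted Mueller Hinton Broth with 0.002% Tween-80. Cells were then added to 2-fold compound dilutions starting at 4 or 0.5 μg/mL, at OD600 0.0005.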
# [2] = target: T1, SpsB (Staphylococcus aureus signal peptidase) (Staphylococcus aureus, UniProt P0A070); experiment: cell-based; type: biochemical; conditions: SpsB IC50, whole-cell S. aureus (USA300 background, overexpressing SpsB) as SpsB source; fluorogenic peptide substrate, kinetic read 30 min
# T1 construct: This assay uses a suspension of Staphylococcus aureus cells as a source of SpsB instead of recombinant SpsB protein; endogenous in cells; host or cells: S. aureus, USA300 background, overexpressing SpsB (whole-cell suspension from frozen pellets)
# T1 sequence (P0A070 whole entry): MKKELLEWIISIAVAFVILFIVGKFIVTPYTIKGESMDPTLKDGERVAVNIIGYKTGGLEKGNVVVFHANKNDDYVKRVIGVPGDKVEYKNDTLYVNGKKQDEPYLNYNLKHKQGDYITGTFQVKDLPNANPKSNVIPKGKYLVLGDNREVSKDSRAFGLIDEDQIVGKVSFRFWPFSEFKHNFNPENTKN
# Protocol: A kinetic fluorogenic enzyme activity assay was used to assess inhibition of SpsB (Staphylococcus aureus signal peptidase) activity and IC50s were determined. This assay uses a suspension of Staphylococcus aureus cells as a source of SpsB instead of recombinant SpsB protein.
# Cell preparation: Luria broth (LB) was inoculated with S. aureus (USA300 background, overexpressing SpsB) and shaken at 37° C. until an OD600 nm of 1.5-2.0 was reached (˜4 hr). The culture was then diluted to an OD600 nm of 1.0 with LB, aliquoted and centrifuged at 10,000×g for 2 mins. The supernatant was removed and the pellet was resuspended in phosphate buffer (1×PBS, 12.5 mg/L MgCl2, 25 mg/L CaCl2, 0.1% Tween-80) to an OD600 nm of 0.5, then centrifuged again at 10,000x g for 2 mins. The supernatant was removed and the pellets were frozen at −20° C.
# Test compounds were prepared in DMSO at a concentration of 10 mg/mL. These compound stocks were diluted into DMSO to a concentration of 25 μg/mL and serial 3-fold dilutions were made in DMSO, for a total of 11 compound concentrations. 20 nL of each compound solution was pre-spotted into a white 384-well plate (50 μL/well polypropylene, Nunc) using acoustic fluid transfer (Echo).
# Frozen S. aureus pellets were resuspended in assay buffer (1x PBS, 12.5 mg/L MgCl2, 25 mg/L CaCl2, 0.1% Tween-80) to an OD600 nm of 0.05, then mixed 1:1 (v/v) with 20 μM substrate ((Dabcyl)βAla-KPAKAAE(Edans)) in assay buffer, and this solution was added (20 μL/well) to the 384-well plate that had been pre-spotted with compound. Fluorescence intensity was then immediately read kinetically for 30 minutes with 2 minute read intervals to monitor cleavage of the internally quenched peptide substrate (excitation wavelength=340 nm, emission wavelength=490 nm, Molecular Devices Spectramax M5). Reaction rate (slope) was plotted against inhibitor concentration to derive the IC50.
# [3] = tested on: Escherichia coli ATCC 25922; experiment: Minimum inhibitory concentration, broth micro-dilution (CLSI), E. coli; type: cell-based; conditions: Escherichia coli, ATCC25922, 22 h, 35° C., 22 hours
# [4] = tested on: Escherichia coli MC4100 harboring the IMP4213 (E. coli IMP); experiment: microbe, parasite or virus in culture; type: cell-based; conditions: Escherichia coli, 22 h, read-out: MIC (μg/mL) E. coli IMP, E. coli MC4100 IMP4213, increased outer-membrane permeability; 35° C., 22 hours
# Method in brief: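 Ten 2-fold dilutions, from 4 μg/mL or from 0.5 μg/mL depending on protocol, are challenged with bacteria at OD600 0.0005 in Tween-80-supplemented cation-adjusted Mueller Hinton Broth. Plates incubate 22 hours at 35° C per CLSI. The E. coli IMP4213 strain has increased outer-membrane permeability.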
# [5] = MRSA USA 300 NRS384, read-out: MIC (μg/mL) S. aureus
# [6] = E. coli ATCC 25922, read-out: MIC (μg/mL) E. coli
# [7] = read-out: MIC (μg/mL) S. aureus, MRSA USA 300 NRS384
# [8] = read-out: MIC (μg/mL) E. coli, E. coli ATCC 25922
Structure (SMILES),"MIC [1, 5]",IC50 [2],"MIC [3, 6]",MIC [4],"MIC [1, 7]","MIC [3, 8]"
CCCCc1ccc(-c2ccc(C(=O)N[C@@H](CC3CCNCC3)C(=O)N(C)[C@@H]3C(=O)N[C@@H](C)C(=O)N[C@H](C(=O)NCC#N)Cc4ccc(OCCN)c(c4)-c4cc3ccc4OCCN)cc2)cc1 [Compound 477],0.063 µg/mL,0.68 nM,4 µg/mL,0.063 µg/mL,–,–
"CCCCCCCCCC(=O)N[C@@H](C(=O)N[C@@H](CCN)C(=O)N(C)[C@@H]1C(=O)N[C@@H](C)C(=O)N[C@H](C(=O)NCC#N)Cc2ccc(OCCN)c(c2)-c2cc1ccc2OCCN)C(C)O (single isomer, unassigned) [Compound 357-P2]",–,1.1 nM,–,0.094 µg/mL,0.094 µg/mL,12 µg/mL
CCCCc1ccc(C(=O)N[C@@H](CCC)C(=O)N[C@@H](CCN)C(=O)N(C)[C@@H]2C(=O)N[C@@H](C)C(=O)N[C@H](C(=O)NCC#N)Cc3ccc(OCCN)c(c3)-c3cc2ccc3OCCN)c(C)c1 [Compound 355],–,1.1 nM,–,0.031 µg/mL,0.13 µg/mL,4 µg/mL
Cc1cc(CC(C)(C)C)ccc1C(=O)N[C@@H](CCN)C(=O)N(C)[C@@H]1C(=O)N[C@@H](C)C(=O)N[C@H](C(=O)NCC#N)Cc2ccc(OCCN)c(c2)-c2cc1ccc2OCCN [Compound 219],0.19 µg/mL,1.9 nM,1.5 µg/mL,0.023 µg/mL,–,–
C[C@@H]1NC(=O)[C@@H](N(C)C(=O)[C@H](CCN)NC(=O)c2ccc(C#Cc3ccccc3)cc2)c2ccc(OCCN)c(c2)-c2cc(ccc2OCCN)C[C@@H](C(=O)NCC#N)NC1=O [Compound 120],–,1 nM,–,0.016 µg/mL,0.094 µg/mL,0.44 µg/mL
Cc1nc(-c2ccc(CC(C)C)cc2)sc1C(=O)N[C@@H](CCN)C(=O)N(C)[C@@H]1C(=O)N[C@@H](C)C(=O)N[C@H](C(=O)NCC#N)Cc2ccc(OCCN)c(c2)-c2cc1ccc2OCCN [Compound 166],0.063 µg/mL,0.78 nM,0.5 µg/mL,0.016 µg/mL,–,–
CCCCCCCCCCCC(=O)N[C@@H](CCCCN)C(=O)N(C)[C@@H]1C(=O)N[C@@H](C)C(=O)N[C@H](C(=O)NCC#N)Cc2ccc(O)c(c2)-c2cc1ccc2O [Compound 468],0.19 µg/mL,3.4 nM,64 µg/mL,0.5 µg/mL,–,–
CCCCCCCOc1cc(C)c(C(=O)N[C@@H](CCN)C(=O)N(C)[C@@H]2C(=O)N[C@@H](C)C(=O)N[C@H](C(=O)NCC#N)Cc3ccc(OCCN)c(c3)-c3cc2ccc3OCCN)c(C)c1 [Compound 292],0.047 µg/mL,1.2 nM,0.38 µg/mL,0.0078 µg/mL,–,–
CCCCCCCCCCC(C)(C)C(=O)N[C@@H](CCN)C(=O)N(C)[C@@H]1C(=O)N[C@@H](C)C(=O)N[C@H](C(=O)NCC#N)Cc2ccc(OCCN)c(c2)-c2cc1ccc2OCCN [Compound 406],0.063 µg/mL,1.2 nM,2 µg/mL,0.031 µg/mL,–,–
CCCCC#CCOc1ccc(C(=O)N[C@@H](CCN)C(=O)N(C)[C@@H]2C(=O)N[C@@H](C)C(=O)N[C@H](C(=O)NCC#N)Cc3ccc(OCCN)c(c3)-c3cc2ccc3OCCN)c(Cl)c1 [Compound 283],0.063 µg/mL,0.87 nM,1 µg/mL,0.012 µg/mL,–,–
CCCCc1ccc(-c2ccc(C(=O)N[C@@H](CCCCN)C(=O)N(C)[C@@H]3C(=O)N[C@@H](C)C(=O)N[C@H](C(=O)NCC#N)Cc4ccc(OCCN)c(c4)-c4cc3ccc4OCCN)cc2)cc1 [Compound 331],–,0.34 nM,–,0.023 µg/mL,0.063 µg/mL,0.69 µg/mL
